Source: paper PMC535546, “Assessment of FIV-C infection of cats as a function of treatment with the protease inhibitor, TL-3” (Retrovirology, 2004)

Columns and labels:
wild-type FIV-C protease = assay: Inhibitor constant (Ki) of TL-3 against wild-type FIV-C protease, fluorogenic substrate; format: biochemical, feline immunodeficiency virus (FIV-C); details: wildtype PR
Description: (§1) Complementary DNA (cDNA) was synthesized from isolated plasma viral RNA of infected cats. […] The amplified PCR product was gel purified and cloned into pCR-TOPOII vector (Invitrogen, Carlsbad, CA) for sequencing. Selected DNA of mutants, N55D, H72R, D105G, and M107R were digested with Nde I/Hind III and ligated into pET21a expression vector (Novagen). The mutant FIV-C proteases were expressed in Rosetta pLysS cells (Novagen) and purified as previously described.
(§2) Enzyme kinetics of FIV-C protease were assayed on the flourogenic substrate Arg-Ala-Leu-Thr-Lys(Abz)-Val-Gln/Phe(NO2)-Val-Gln-Ser-Lys-Gly-Arg-NH2. […] Inhibitor constant (Ki) of TL-3 against mutant FIV-C protease was analyzed as described.

[1] = target: FIV-C protease mutant D105G (HIV88N) (Feline immunodeficiency virus, UniProt P16088, D143G)
Description: as §1, §2

[2] = target: T1, FIV-C protease mutant H72R (HIV63L) (Feline immunodeficiency virus, UniProt P16088, H110R); assay: Inhibitor constant (Ki) of TL-3 against mutant FIV-C protease H72R; format: biochemical; details: PR mutation H72R (HIV63L), cat 231
T1 construct: adds a stop codon and a Hind III restriction site to the C-terminus of the protease; Met-Ala N-terminal extension (printed 'methionine, and alkaline'; the primer codes ATG GCA) (N); made in house; host or cells: E. coli Rosetta pLysS, pET21a
Description: as §1, §2

[3] = target: T2, FIV-C protease mutant N55D (HIV46M) (Feline immunodeficiency virus, UniProt P16088, N93D); assay: Inhibitor constant (Ki) of TL-3 against mutant FIV-C protease N55D; format: biochemical; details: PR mutation N55D (HIV46M), cat 231
T2 construct: adds a stop codon and a Hind III restriction site to the C-terminus of the protease; Met-Ala N-terminal extension (printed 'methionine, and alkaline'; the primer codes ATG GCA) (N); made in house; host or cells: E. coli Rosetta pLysS, pET21a
Description: as §1, §2

FIV-C (CABCpady00C) = assay: FIV-C infection of cats with oral TL-3 treatment (viral load, disease, survival); format: in vivo, cat
Description: Twenty-two female specific pathogen-free (SPF) cats were randomly divided into five groups. Group 0 consisted of two cats, which received TL-3 treatment without viral infection and were considered controls. Group 1 (n = 5) received 0.1 ml (10^5 RNA copies/ml) of FIV-C-infected plasma I.V. with TL-3 drug treatment. Group 2 (n = 5) received 0.1 ml FIV-C-infected plasma without TL-3 treatment. Group 3 (n = 5) received 0.5 ml FIV-C-infected plasma with TL-3 and Group 4 (n = 5) received 0.5 ml FIV-C-infected plasma without TL-3 treatment. Blood (1 ml) was drawn from all cats prior to the start of the experiment, at weekly intervals for the first four weeks after infection, and at bi-monthly intervals from week 4 until the end of the study. Complete blood counts were assessed as a function of infection and TL-3 treatment. In addition, quantitative reverse transcription PCR (QRT-PCR) analyses were performed to assess plasma viral load. All animals were continuously observed for any changes in general health. No significant differences were noted between viral load or disease phenotype between the two plasma dosages used in infection and subsequent discussion will not distinguish between these two groups.
Plasma samples (10^5 RNA copies/ml) from a cat, that had died from an acute infection with CABCpady00C (FIV-C), were kindly provided by Dr. E. Hoover, of Colorado State University. Cats were injected I.V. with either 0.1 ml (10^5 RNA copies/ml) or 0.5 ml of plasma.
(§3) All procedures for care of cats during dosing as well as dosing procedures were mandated by TSRI's IACUC. Oral TL-3 (L-Iditol,1,2,5,6-tetradeoxy-1,6-diphenyl-2,5-bis [N-[(phenylmethoxy)carbonyl]-L-alanyl-L-valyl]amino]) treatment was initiated in 12 cats, three days prior to infection of ten of the twelve animals with FIV-C. All TL-3 treated animals received 20 mg TL-3 by capsules at eight hour intervals, for approx. the first 7.5 weeks of the experiment. Dosage was then doubled to 40 mg TL-3 per dose at eight hour intervals for an additional week for the two control animals and the eight surviving animals in the TL-3 treated, infected cohort.
Animals were examined daily and in case of health concerns further therapy/diagnostics were initiated. Animals with abnormal weight, or on antibiotics were placed on supplemental feeding with moist food and Nutrical. Dehydrated animals received subcutaneous fluid therapy. More affected animals received supportive care and medications, consisting of BID administration of antibiotics (Baytril), BID subcutaneous fluid therapy, BID temperature evaluation, BID application of antibiotic ophthalmic ointment supportive care. Any animals that required extensive supportive care (TID fluid therapy, TID force feeding) were euthanized. Euthanasia of research animals was conducted with strict adherence to NIH Office of Laboratory Animal Welfare protocols.
Plasma for weeks 0, 2, 4, 6 (terminal points for cats 215, 221, and 229), 6.5 (terminal points for cats 219, 220, and 234), and 8, were isolated from whole blood by centrifugation and stored at -20°C. Viral RNA was extracted using the QiaAmp Viral RNA Isolation Kit (Qiagen, Valencia, CA) according to manufacturer's instructions with slight modifications: Plasma samples (280 μl) were lysed in buffer AVL (1,120 μl) (Qiagen) for 10 minutes at room temperature in the presence of carrier RNA (10 μg/ml) and an external Kanamycin (KAN) RNA spike. Equal amounts of the external RNA spike (10^9 copies RNA /280 μl plasma), corresponding to the 1.2 kb KAN gene (Promega, Madison, WI), was used to normalize plasma volumes between samples and to correct for sample loss from viral RNA extraction and cDNA synthesis. An on-column DNase/ RNase free (Qiagen) incubation step for 10 minutes at room temperature was added to remove residual cellular DNA. […]

[4] = Tolerability of oral TL-3 in uninfected control cats; format: in vivo, cat; details: TL-3 treated controls, 20 mg then 40 mg oral every eight hours
Description: as §3

FIV = system: FIV; set-up: method as in PMID 9448264; details: cited from earlier work
HIV-1 = system: HIV-1; set-up: method as in PMID 9448264; details: cited from earlier work
[5] = system: SIV (simian immunodeficiency virus); set-up: method as in PMID 9448264; details: cited from earlier work
FIV-PPR = FIV-PPR infected cats; cited from earlier work

With `CC(C)[C@H](NC(=O)[C@H](C)NC(=O)OCc1ccccc1)C(=O)N[C@@H](Cc1ccccc1)[C@@H](O)[C@H](O)[C@H](Cc1ccccc1)NC(=O)[C@@H](NC(=O)[C@H](C)NC(=O)OCc1ccccc1)C(C)C` [TL-3] the Ki (wild-type FIV-C protease) was 9.9 nM, the “resistance against TL-3 relative to wild type protease” value ([1]; D105G mutant vs wild type FIV-C protease) was 5 fold and the Ki ([1]; read-out: Ki vs TL-3, PR mutation D105G (HIV88N), cloned from cats 231 and 222) was 47.3 nM. The Ki [2] was 10.9 nM, the Ki [3] was 9.1 nM and the “animals that had lost weight” value (FIV-C (CABCpady00C); 6 weeks post infection, + TL-3 cohort, three also in -TL-3 cohort) was “three”. For the same compound, the “animals that required euthanasia” value (FIV-C (CABCpady00C); TL-3 treated group, of six euthanized, four from untreated cohort) was “two”, the “average (peak) viral loads vs untreated animals” value (FIV-C (CABCpady00C); acute phase, did not reach statistical significance) was “lower” and the “animals showing clinical signs of debilitating acute phase disease” value (FIV-C (CABCpady00C); by week 6 post infection, TL-3 treated groups, of seven affected, four untreated) was “three”. For the same compound, the prevention of viremia (FIV-C (CABCpady00C); oral monotherapy, high dose FIV-C) was “did not prevent viremia”, the “plasma viremia, TL-3 treated vs untreated cohorts” value (FIV-C (CABCpady00C); week 2 post infection) was “little differences in viral loads” and the “animals with viral loads below detection limits” value (FIV-C (CABCpady00C); week 8 post infection, surviving TL-3 treated cats, oral 20 mg every eight hours, untreated: one of six) was “four of 8 and half”. The adverse effects [4] was “No adverse effects”, the “inhibition of infection in vitro” value (FIV) was “inhibits” and the “inhibition of infection in vitro” value (HIV-1) was “inhibits”. For the same compound, the “inhibition of infection in vitro” value [5] was “inhibits”, the “effect on delays in brainstem auditory evoked potentials (BAEPs)” value (FIV-PPR) was “could reverse this effect” and the “effect on neurologic alterations in the CNS” value (FIV-PPR) was “significant protective effect”. For the same compound, the plasma viral loads (FIV-PPR) was “lowered plasma viral loads”.
